Experimental data reported in patent publication US20210403443A1, “SUBSTITUTED 1,2,4-OXADIAZOLE, ITS APPLICATION AND A PHARMACEUTICAL PREPARATION COMPRISING IT” (SVENOX PHARMACEUTICALS LLC, priority 2018, published 2021).
Values after ≈ are worked out from the molar mass of the structure shown. Read-outs that look alike come from different tables or passages of the source.

Experiments:
[1] = tested on: Mycobacterium tuberculosis CNCTC My 331/88; assay: microbe, parasite or virus in culture; assay type: cell-based; conditions: read-out: Minimum inhibiting concentration
[2] = tested on: M. kansasii CNCTC My 235/80; assay: microbe, parasite or virus in culture; assay type: cell-based; conditions: Mycobacterium kansasii, read-out: Minimum inhibiting concentration
[3] = tested on: M. avium CNCTC My 330/88; assay: MIC micromethod in Sula's medium, atypical strain M. avium; assay type: cell-based; conditions: Mycobacterium avium, read-out: Minimum inhibiting concentration
Experimental: The prepared compounds with general formula I were tested by the Institute of Public Health in Ostrava (Department of Bacteriology and Mycology, Laboratory for Diagnostics of Mycobacteria, Partyzanské náměsti 7, 702 00 Ostrava) under in vitro conditions in liquid Sula's medium and their minimum inhibiting concentrations (MIC) were determined as the biological effect of molecules cannot be predicted. The antimycobacterial activity of the prepared compounds was tested on the collection strain Mycobacterium tuberculosis CNCTC My 331/88, collection atypical strains M. avium CNCTC My 330/88 and M. kansasii CNCTC My 235/80. Their activity was compared with the effect of isoniazide (INH), a commonly used medicament.

[4] = 336 h, M. avium My 330/88, after 14 days of incubation
[5] = 504 h, M. avium My 330/88, after 21 days of incubation

| SMILES | MIC ([1]; 336 h) [µM] | MIC ([1]; 504 h) [µM] | melting point [°C] | MIC ([2]; 168 h) [µM] | MIC ([2]; 336 h) [µM] | MIC ([2]; 504 h) [µM] | MIC [3, 4] [µM] | MIC [3, 5] [µM] |
| --- | --- | --- | --- | --- | --- | --- | --- | --- |
| Cc1ccc(-c2noc(CCc3cc([N+](=O)[O-])cc([N+](=O)[O-])c3)n2)cc1 [Compound 12, 5-(3,5-Dinitrophenethyl)-3-(p-tolyl)-1,2,4-oxadiazole] | 2 (≈ 0.709 µg/mL) | 4 (≈ 1.42 µg/mL) | 147 to 148 | 2 (≈ 0.709 µg/mL) | 4 (≈ 1.42 µg/mL) | 4 (≈ 1.42 µg/mL) | 250 (≈ 88.6 µg/mL) | 250 (≈ 88.6 µg/mL) |
| O=[N+]([O-])c1cc(CCc2nc(-c3ccccc3)no2)cc([N+](=O)[O-])c1 [Compound 11, 5-(3,5-Dinitrophenethyl)-3-phenyl-1,2,4-oxadiazole] | 4 (≈ 1.36 µg/mL) | 4 (≈ 1.36 µg/mL) | 120 to 122 | 2 (≈ 0.681 µg/mL) | 4 (≈ 1.36 µg/mL) | 8 (≈ 2.72 µg/mL) | 250 (≈ 85.1 µg/mL) | 250 (≈ 85.1 µg/mL) |
| O=[N+]([O-])c1cc(CSc2nc(-c3ccc(Cl)c(Cl)c3)no2)cc([N+](=O)[O-])c1 [Compound 7] | 1 (≈ 0.427 µg/mL) | 1 (≈ 0.427 µg/mL) | 176 to 177 | 1 (≈ 0.427 µg/mL) | 1 (≈ 0.427 µg/mL) | 2 (≈ 0.854 µg/mL) | 250 (≈ 107 µg/mL) | 250 (≈ 107 µg/mL) |
| COc1ccc(-c2noc(CCc3cc([N+](=O)[O-])cc([N+](=O)[O-])c3)n2)cc1 [Compound 13] | 0.5 (≈ 0.185 µg/mL) | 1 (≈ 0.37 µg/mL) | 128 to 129 | 0.5 (≈ 0.185 µg/mL) | 1 (≈ 0.37 µg/mL) | 2 (≈ 0.741 µg/mL) | 250 (≈ 92.6 µg/mL) | 250 (≈ 92.6 µg/mL) |
| COc1ccc(-c2noc(SCc3cc([N+](=O)[O-])cc([N+](=O)[O-])c3)n2)cc1 [Compound 3] | 0.5 (≈ 0.194 µg/mL) | 0.5 (≈ 0.194 µg/mL) |  | 0.5 (≈ 0.194 µg/mL) | 1 (≈ 0.388 µg/mL) | 2 (≈ 0.777 µg/mL) | 250 (≈ 97.1 µg/mL) | 250 (≈ 97.1 µg/mL) |
| O=[N+]([O-])c1cc(CSc2nc(-c3ccccc3Cl)no2)cc([N+](=O)[O-])c1 [Compound 6] | 0.5 (≈ 0.196 µg/mL) | 1 (≈ 0.393 µg/mL) | 158 to 160 | 8 (≈ 3.14 µg/mL) | 16 (≈ 6.28 µg/mL) | 32 (≈ 12.6 µg/mL) | 125 (≈ 49.1 µg/mL) | 125 (≈ 49.1 µg/mL) |
| O=[N+]([O-])c1cc(CSc2nc(-c3ccccc3)no2)cc([N+](=O)[O-])c1 [Compound 1, 5-((3,5-Dinitrobenzyl)sulfanyl)-3-phenyl-1,2,4-oxadiazole] | 0.5 (≈ 0.179 µg/mL) | 1 (≈ 0.358 µg/mL) | 135 to 136 | 0.5 (≈ 0.179 µg/mL) | 1 (≈ 0.358 µg/mL) | 1 (≈ 0.358 µg/mL) | 250 (≈ 89.6 µg/mL) | 250 (≈ 89.6 µg/mL) |
| O=[N+]([O-])c1cc(CSc2nc(-c3ccc(F)cc3)no2)cc([N+](=O)[O-])c1 [Compound 8] | 0.25 (≈ 0.0941 µg/mL) | 0.5 (≈ 0.188 µg/mL) | 150 to 152 | 0.5 (≈ 0.188 µg/mL) | 1 (≈ 0.376 µg/mL) | 2 (≈ 0.753 µg/mL) | 250 (≈ 94.1 µg/mL) | 250 (≈ 94.1 µg/mL) |
| O=[N+]([O-])c1cc(CCc2nc(-c3ccc(Cl)c(Cl)c3)no2)cc([N+](=O)[O-])c1 [Compound 15] | > 32 | > 32 | 154 to 155 | 32 (≈ 13.1 µg/mL) | > 32 | > 32 | 250 (≈ 102 µg/mL) | 250 (≈ 102 µg/mL) |
| O=[N+]([O-])c1cc(CSc2nc(-c3ccc(Br)cc3)no2)cc([N+](=O)[O-])c1 [Compound 9] | 1 (≈ 0.437 µg/mL) | 1 (≈ 0.437 µg/mL) | 175 to 176 | 1 (≈ 0.437 µg/mL) | 1 (≈ 0.437 µg/mL) | 2 (≈ 0.874 µg/mL) | 125 (≈ 54.7 µg/mL) | 125 (≈ 54.7 µg/mL) |
| O=[N+]([O-])c1cc(CCc2nc(-c3ccc(Cl)cc3)no2)cc([N+](=O)[O-])c1 [Compound 14] | > 32 | > 32 | 182 to 183 | > 32 | > 32 | > 32 | 250 (≈ 93.7 µg/mL) | 250 (≈ 93.7 µg/mL) |
| O=[N+]([O-])c1cc(CCc2nc(-c3ccc(F)cc3)no2)cc([N+](=O)[O-])c1 [Compound 16] | > 32 | > 32 | 169 to 171 | > 32 | > 32 | > 32 | 250 (≈ 89.6 µg/mL) | 250 (≈ 89.6 µg/mL) |
| O=[N+]([O-])c1cc(CSc2nc(-c3cccc(Cl)c3)no2)cc([N+](=O)[O-])c1 [Compound 5] | 0.5 (≈ 0.196 µg/mL) | 1 (≈ 0.393 µg/mL) | 133 to 135 | 2 (≈ 0.786 µg/mL) | 2 (≈ 0.786 µg/mL) | 4 (≈ 1.57 µg/mL) | 250 (≈ 98.2 µg/mL) | 250 (≈ 98.2 µg/mL) |
| Cc1ccc(-c2noc(SCc3cc([N+](=O)[O-])cc([N+](=O)[O-])c3)n2)cc1 [Compound 2, 5-((3,5-Dinitrobenzyl)sulfanyl)-3-(p-tolyl)-1,2,4-oxadiazole] | 0.5 (≈ 0.186 µg/mL) | 1 (≈ 0.372 µg/mL) | 150 to 152 | 0.5 (≈ 0.186 µg/mL) | 1 (≈ 0.372 µg/mL) | 2 (≈ 0.745 µg/mL) | 250 (≈ 93.1 µg/mL) | 250 (≈ 93.1 µg/mL) |
| O=[N+]([O-])c1cc(CSc2nc(-c3ccc(Cl)cc3)no2)cc([N+](=O)[O-])c1 [Compound 4] | 0.5 (≈ 0.196 µg/mL) | 1 (≈ 0.393 µg/mL) |  | 1 (≈ 0.393 µg/mL) | 2 (≈ 0.786 µg/mL) | 4 (≈ 1.57 µg/mL) | 250 (≈ 98.2 µg/mL) | 250 (≈ 98.2 µg/mL) |
